Data from US20120035206A1, “PREPARATION AND APPLICATION OF NOVEL ANTIBACTERIAL AND ANTICANCER COMPOUNDS AND THEIR DERIVATIVES” (priority 2009, published 2012).
Values after ≈ are worked out from the molar mass of the structure shown.

How the values were obtained:
Type in all cases: cell-based
E. floccosum = experiment: In vitro antibacterial (antifungal) test, two-fold dilution MIC; conditions: Epidermophyton floccosum, RPMI 1640, culture 2-7 days
Protocol: (§1) In vitro antibacterial experiments of 25 compounds as anti-bacterial and anti-cancer compounds in the patent were tested using 14 kinds of bacteria. Tested bacteria: C. albicans, C. tropicalis, C. neoformans, E. floccosum, M. gypseum, A. niger, S. schenekn, C. parapsilosis, C. glabrata, C. Krusei, Trichoderma, Gibberella, Setrosphaeria turcica, Fusarium Oxysporum Vasinfectum. (Bacteria were from the Dermatology Hospital of Chinese Academy of Medical Sciences, Nanjing, China.)
(§2) The Preparation of tested Bacteria solution was following: incubated Bacteria were added to 5 ml physiological saline, and then they were mashed and placed with ultrasound. The solution was fully mixed, and insoluble substances were removed. The treated solution was called the original bacterium solution. In the test, the bacteria concentration in the original bacterium solution was adjusted to […].
(§3) Tested Methods: the tested compounds were dissolved in dimethyl sulfoxide. and the solution was diluted with sterile distilled water. And the distilled solution was added to sterilized RPMI 1640 medium. The concentration of the compounds were adjusted to 256, 128, 64, 32, 16, 8, 4, 2, 1, 0.5, 0.25, 0.125 ug*ml-1. Then the adjusted solutions were inoculated with tested bacteria, and the tested systems were placed in the constant temperature oven to culture for 2-7 days. The concentration at which there was no growing of fungi was taken as the minimum inhibitory concentration (MIC).

S. schenekn = experiment: as above; conditions: RPMI 1640, culture 2-7 days
Protocol: as §1, §2, §3

C. neoformans = experiment: as above; conditions: Cryptococcus neoformans, RPMI 1640, culture 2-7 days
Protocol: as §1, §2, §3

gibberella = experiment: as above; conditions: RPMI 1640, culture 2-7 days
Protocol: as §1, §2, §3

C. glabrata = experiment: as above; conditions: Nakaseomyces glabratus, RPMI 1640, culture 2-7 days
Protocol: as §1, §2, §3

FTC 133 = experiment: In vitro anticancer MTT experiment; conditions: Homo sapiens, concentration 5 ug/ml, 48 h or 72 h, read-out: inhibition ratio FTC 133
Protocol: (§4) In vitro anticancer experiments of 25 compounds as anti-bacterial and anti-cancer compounds in the patent were tested. In the test, 14 kinds of cancer cells were used as tested cancer cells. And the results obtained by MTT method were shown in table 2 (the inhibition ratio was obtained when the concentration was 5 ug/ml). Tested Cancer Cells: SGC7901, HTB-38HT-29, CRL-2233NU-398, CRL-1469PANC-1, B0192, HTB-131MDA-453, CRL-1435PC-3, FTC133, AS24391, HTB-95637. (Cancer cells were from Chinese Military Academy of Medical Sciences). Cells Culture: Culture solution was composed of RPMI 1640 medium, 10% (VAT) Fetal calf serum and 0.01% L-glutamine. Cultured cells were maintained at 37° C. in an incubator with 5% CO2. The cells at logarithmic growth phase were used in the experiment. MTT Experiment: Single cell suspension was obtained by digesting cells with 0.25% trypsin. The cells at logarithmic growth phase were collected and seeded in a 96-well plate at a concentration of 6000-7000 cells per well. After culturing for 12 h at 37° C. in the incubator with 5% CO2, the cells were again incubated with the tested compounds of various concentrations for 48 h or 72 h. Pure cultures and cells without drug were taken as blank reference and negative reference, and 8 Wells of each group were taken. Twenty microliter of MTT (5 mg/mL) was added to each well, and the mixed solutions were incubation for 4 h. The formazan product was dissolved by dimethyl sulfoxide (DMSO, 150 μL), and the optical density (O.D.) was read at 570 nm. The Inhibition Ratio was calculated by the following formula: Inhibition Ratio=(Anegative control−Asample)/(Anegative control−Ablank control)

HTB-131MDA-MB-453 = experiment: In vitro anticancer MTT experiment; conditions: concentration 5 ug/ml, 48 h or 72 h, read-out: inhibition ratio HTB-131MDA-MB-453
Protocol: as §4

HTB-95637 = experiment: In vitro anticancer MTT experiment; conditions: concentration 5 ug/ml, 48 h or 72 h, read-out: inhibition ratio HTB-95637
Protocol: as §4

CRL-1435PC-3 = experiment: In vitro anticancer MTT experiment; conditions: concentration 5 ug/ml, 48 h or 72 h, read-out: inhibition ratio CRL-1435PC-3
Protocol: as §4

CRL-2233SNU-398 = experiment: In vitro anticancer MTT experiment; conditions: concentration 5 ug/ml, 48 h or 72 h, read-out: inhibition ratio CRL-2233SNU-398
Protocol: as §4

AS24391 = experiment: In vitro anticancer MTT experiment; conditions: concentration 5 ug/ml, 48 h or 72 h, read-out: inhibition ratio AS24391
Protocol: as §4

B01092 = experiment: In vitro anticancer MTT experiment; conditions: concentration 5 ug/ml, 48 h or 72 h, read-out: inhibition ratio B01092
Protocol: as §4

CRL-1469PANC-1 = experiment: In vitro anticancer MTT experiment; conditions: concentration 5 ug/ml, 48 h or 72 h, read-out: inhibition ratio CRL-1469PANC-1
Protocol: as §4

HTB-94 = experiment: In vitro anticancer MTT experiment; conditions: concentration 5 ug/ml, 48 h or 72 h, read-out: inhibition ratio HTB-94
Protocol: as §4

L1210 = experiment: In vitro anticancer MTT experiment; conditions: Mus musculus, concentration 5 ug/ml, 48 h or 72 h, read-out: inhibition ratio L1210
Protocol: as §4

A375 = experiment: In vitro anticancer MTT experiment; conditions: Homo sapiens, A-375, concentration 5 ug/ml, 48 h or 72 h, read-out: inhibition ratio A375
Protocol: as §4

L428 = experiment: In vitro anticancer MTT experiment; conditions: Homo sapiens, L-428, concentration 5 ug/ml, 48 h or 72 h, read-out: inhibition ratio L428
Protocol: as §4

HTB-38HT-29 = experiment: In vitro anticancer MTT experiment; conditions: concentration 5 ug/ml, 48 h or 72 h, read-out: inhibition ratio HTB-38HT-29
Protocol: as §4

C. albicans = experiment: In vitro antibacterial (antifungal) test, two-fold dilution MIC; conditions: Candida albicans, read-out: MIC C. albicas
Protocol: as §1, §2, §3

Terchoderma = experiment: as above; conditions: Trichoderma, RPMI 1640, culture 2-7 days
Protocol: as §1, §2, §3

[1] = system: Fusarium oxysporum vasinfectum; experiment: as above; conditions: RPMI 1640, culture 2-7 days
Protocol: as §1, §2, §3

Setosphaeria turcica = experiment: as above; conditions: Exserohilum turcicum, RPMI 1640, culture 2-7 days
Protocol: as §1, §2, §3

C. tropicalis = experiment: as above; conditions: Candida tropicalis, RPMI 1640, culture 2-7 days
Protocol: as §1, §2, §3

M. gypseum = experiment: as above; conditions: Nannizzia gypsea, RPMI 1640, culture 2-7 days
Protocol: as §1, §2, §3

C. parapsilosis = experiment: as above; conditions: Lodderomyces parapsilosis, RPMI 1640, culture 2-7 days
Protocol: as §1, §2, §3

SGC7901 = experiment: In vitro anticancer MTT experiment; conditions: Homo sapiens, SGC-7901, concentration 5 ug/ml, 48 h or 72 h, read-out: inhibition ratio SGC7901
Protocol: as §4

Question: `Cc1ccc(S/C=C2/CSc3ccc(F)cc3C2=O)cc1F` [Compound 23, (E)-6-fluoro-3-(((3-fluoro-4-methylphenyl)thio)methylene)thiochroman-4-one] was tested. Which MIC (E. floccosum) did it give?
Answer: 64 µg/mL (≈ 191 µM)

Question: What about the MIC (S. schenekn) of the same molecule?
Answer: 64 µg/mL (≈ 191 µM)

Question: And the MIC (C. neoformans)?
Answer: 16 µg/mL (≈ 47.8 µM)

Question: And the MIC (gibberella)?
Answer: 16 µg/mL (≈ 47.8 µM)

Question: What about the MIC (C. glabrata) of the same molecule?
Answer: 64 µg/mL (≈ 191 µM)

Question: What about the inhibition at 5 µg/mL (FTC 133) of the same molecule?
Answer: 42.4%

Question: And the inhibition at 5 µg/mL (HTB-131MDA-MB-453)?
Answer: 53.5%

Question: And the inhibition at 5 µg/mL (HTB-95637)?
Answer: 50.6%

Question: What about the inhibition at 5 µg/mL (CRL-1435PC-3) of the same molecule?
Answer: 43.9%

Question: What about the inhibition at 5 µg/mL (CRL-2233SNU-398) of the same molecule?
Answer: 53.3%

Question: And the inhibition at 5 µg/mL (AS24391)?
Answer: 44.5%

Question: What about the inhibition at 5 µg/mL (B01092) of the same molecule?
Answer: 39%

Question: What about the inhibition at 5 µg/mL (CRL-1469PANC-1) of the same molecule?
Answer: 34.2%

Question: And the inhibition at 5 µg/mL (HTB-94)?
Answer: 47.9%

Question: And the inhibition at 5 µg/mL (L1210)?
Answer: 37.6%

Question: What about the inhibition at 5 µg/mL (A375) of the same molecule?
Answer: 49.2%

Question: And the inhibition at 5 µg/mL (L428)?
Answer: 59.5%

Question: And the inhibition at 5 µg/mL (HTB-38HT-29)?
Answer: 56.1%

Question: `O=C1/C(=C/Cl)CSc2sccc21` [Compound 19, (Z)-5-(chloromethylene)-5,6-dihydro-4H-thieno[2,3-b]thiopyran-4-one] was tested. Which MIC (E. floccosum) did it give?
Answer: 4 µg/mL (≈ 18.5 µM)

Question: And the MIC (S. schenekn)?
Answer: 32 µg/mL (≈ 148 µM)

Question: And the MIC (C. albicans)?
Answer: 8 µg/mL (≈ 36.9 µM)

Question: What about the MIC (Terchoderma) of the same molecule?
Answer: 4 µg/mL (≈ 18.5 µM)

Question: And the MIC [1]?
Answer: 16 µg/mL (≈ 73.8 µM)

Question: And the MIC (Setosphaeria turcica)?
Answer: 32 µg/mL (≈ 148 µM)

Question: And the MIC (C. tropicalis)?
Answer: 16 µg/mL (≈ 73.8 µM)

Question: And the MIC (C. neoformans)?
Answer: 16 µg/mL (≈ 73.8 µM)

Question: What about the MIC (M. gypseum) of the same molecule?
Answer: 16 µg/mL (≈ 73.8 µM)

Question: What about the MIC (gibberella) of the same molecule?
Answer: 8 µg/mL (≈ 36.9 µM)

Question: And the MIC (C. parapsilosis)?
Answer: 4 µg/mL (≈ 18.5 µM)

Question: And the MIC (C. glabrata)?
Answer: 32 µg/mL (≈ 148 µM)

Question: And the inhibition at 5 µg/mL (FTC 133)?
Answer: 54.8%

Question: And the inhibition at 5 µg/mL (HTB-131MDA-MB-453)?
Answer: 47.9%

Question: What about the inhibition at 5 µg/mL (SGC7901) of the same molecule?
Answer: 56.4%

Question: And the inhibition at 5 µg/mL (CRL-1435PC-3)?
Answer: 41.3%

Question: And the inhibition at 5 µg/mL (AS24391)?
Answer: 53%

Question: And the inhibition at 5 µg/mL (B01092)?
Answer: 36.5%

Question: And the inhibition at 5 µg/mL (CRL-1469PANC-1)?
Answer: 67.9%

Question: What about the inhibition at 5 µg/mL (HTB-94) of the same molecule?
Answer: 48.5%

Question: And the inhibition at 5 µg/mL (L1210)?
Answer: 76.4%

Question: And the inhibition at 5 µg/mL (A375)?
Answer: 46.2%

Question: And the inhibition at 5 µg/mL (L428)?
Answer: 47.5%

Question: How did the MIC (E. floccosum) turn out when `Cc1ccc(SC2/C(=C/Cl)CSc3ccc(C)cc32)cc1` (stereo not shown) [Compound 29, (E)-3-(chloromethylene)-6-methyl-4-(p-tolylthio)thiochroman] was run?
Answer: 64 µg/mL (≈ 192 µM)

Question: What about the MIC (S. schenekn) of the same molecule?
Answer: 32 µg/mL (≈ 96.1 µM)

Question: And the MIC (Terchoderma)?
Answer: 64 µg/mL (≈ 192 µM)

Question: What about the MIC (M. gypseum) of the same molecule?
Answer: 64 µg/mL (≈ 192 µM)

Question: What about the MIC (gibberella) of the same molecule?
Answer: 16 µg/mL (≈ 48.1 µM)

Question: And the MIC (C. parapsilosis)?
Answer: 32 µg/mL (≈ 96.1 µM)

Question: And the inhibition at 5 µg/mL (FTC 133)?
Answer: 32.2%

Question: What about the inhibition at 5 µg/mL (SGC7901) of the same molecule?
Answer: 23.3%

Question: And the inhibition at 5 µg/mL (CRL-2233SNU-398)?
Answer: 21.5%

Question: And the inhibition at 5 µg/mL (AS24391)?
Answer: 15.2%

Question: What about the inhibition at 5 µg/mL (B01092) of the same molecule?
Answer: 26.5%

Question: And the inhibition at 5 µg/mL (CRL-1469PANC-1)?
Answer: 17.4%

Question: And the inhibition at 5 µg/mL (HTB-94)?
Answer: 23.4%

Question: And the inhibition at 5 µg/mL (L1210)?
Answer: 33.6%

Question: What about the inhibition at 5 µg/mL (A375) of the same molecule?
Answer: 30.2%

Question: And the inhibition at 5 µg/mL (L428)?
Answer: 13.2%

Question: What about the inhibition at 5 µg/mL (HTB-38HT-29) of the same molecule?
Answer: 19.2%
